According to patent US20130150455A1, “METHOD FOR TREATING MECHANICAL ALLODYNIA COMPRISING ADMINISTRATION OF EUGENOL” (SNU R&DB FOUNDATION, priority 2011, published 2013):
Entries after “also recorded” stand apart in the source; their conditions may differ.

Assays:
injured nerve fibers = conditions: in vivo; cited from earlier work
Ih conductance = conditions: cited from earlier work
[1] = system: hyperpolarization-activated current (Ih) in TG neurons (HCN channels); experiment: Whole-cell recordings of Ih in TG neurons; assay type: cell-based, rat
[2] = system: voltage-gated sodium channels (VGSCs); conditions: conventional concentration, equals 50 μg; cited from earlier work
ION-CCI rats [3] = experiment: Thermal hyperalgesia, head withdrawal latency to radiant heat; assay type: in vivo, rat
Method: (§1) All surgical and experimental procedures were reviewed and approved by the Institutional Animal Care and Use Committee at the School of Dentistry, Seoul National University. Animal treatments were performed in strict accordance with the ethical guidelines of the International Association for the Study of Pain for the investigations of experimental pain in conscious animals [Zimmermann, M., Pain, 1983, 16: 109-110], and the National Institute of Health Guide for the Care and Use of Laboratory Animals. Behavioral tests were carried out on male Sprague Dawley rats (OrientBio, Sungnam, Korea) weighing 200-250 g. The rats were maintained in a temperature-controlled room with a 12/12-h light/dark cycle and fed food and water ad libitum. The animals were allowed to habituate to the housing facilities for 1 week before the experiments.
(§2) Surgical procedures were performed under 0.5 mL/kg (i.m.) of a mixture of equal volumes of ketamine (100 mg/mL) and xylazine (20 mg/mL) anesthesia. Under anesthesia, a chronic constriction injury of the infraorbital nerve (ION-CCI) was performed from the original description of Imamura et al. [Imamura, Y. et al., Exp. Brain Res., 1997, 116: 97-103]. A 1-cm-long incision was made along the gingivobuccal margin. The incision was begun proximal to the first molar. Approximately 0.5 cm of the ION was separated from the adhering tissue, and 2 ligatures (5-0 chromic gut) were tied loosely around it. The incision was sutured at 3 points with 4-0 silk. The sham operation was performed without ligation of the infraorbital nerve.
Thermal hyperalgesia was also determined as previously described [Ahn, D. K. et al., Pain, 2009, 146: 114-120; Park, C. K. et al., Pain, 2009, 144: 84-94]. Each rat was placed in a customized cylinder-type acrylic rodent restrainer (height 40 to 60 mm, length 70 to 120 mm). […] Each restrainer was placed in a darkened and noise-free room, and the animals were habituated for at least 30 min before the start of the experiment. After radiant heat was applied to the midregion of the left vibrissa pad, the head withdrawal latency was determined. The application of heat stimuli was performed using an infrared thermal stimulator (Infrared Diode Laser, LVI-808-10, LVI tech, Seoul, Korea). The power and current of the thermal stimulator were adjusted to 11 W and 18.1 A, respectively. The thermal stimuli produced stable withdrawal latencies of approximately 11 s for a 10-cm distance from the heat source to the vibrissa pad. […] After eugenol (10 μg/30 μL or 50 μg/30 μL; 2 mM or 10 mM, respectively) was administered subcutaneously into the vibrissa pad, the latencies of withdrawal responses were determined at 10, 20, 30, 40, 50, and 60 min and 24 h after eugenol injection. […]

ION-CCI rats [4] = experiment: Mechanical allodynia, air-puff threshold head withdrawal test; assay type: in vivo, rat
Method: as §1, §2
On postoperative 7 day, ION-CCI rats were placed in customized observation cages that were then placed in a darkened and noise-free room to conduct behavioral observations. The animals were acclimated for at least 30 min. Mechanical allodynia was determined as previously described [Ahn, D. K. et al., Pain, 2009, 146: 114-120], by observing withdrawal behavior, produced by 10 successive trials of constant air-puff pressure (4-s duration, 10-s intervals) in freely moving rats. The intensity and intervals of the air-puff pressure were controlled with a pneumatic pump module (BH2 system, Harvard Apparatus, Holliston, Mass.). The air puffs were applied through a 26-gauge metal tube (length, 10 cm) located 1 cm from the skin at a 90° angle. Thresholds were determined through the air-puff pressure at which each rat withdrew its head in 50% of the trials. The cutoff pressure for the air puffs was 40 psi. […] After eugenol (1 μg/30 μL, 5 μg/30 μL or 10 μg/30 μL; 200 μM, 1 mM, or 2 mM, respectively) was administered subcutaneously into the vibrissa pad, air-puff thresholds were determined at 15 and 30 min, and at 1, 2, 3, 4, 5, 6, and 24 hr after eugenol injection. In the control group, 30 μL of the vehicle (30% DMSO/saline) was injected subcutaneously.

ION-CCI rats [5] = conditions: >50 μg; cited from earlier work
TG neurons = experiment: Current-clamp action potential firing in TG neurons; assay type: cell-based, rat; conditions: 200 μM
Method: TG neurons from 2- to 7-day-old neonatal rats or adult rats (200 to 300 g) were prepared as previously described [Fang, Z. et al., J. Biol. Chem., 2007, 282: 4757-4764]. Briefly, TG neurons prepared in 4° C. Hanks balanced salt solution (Welgene, Daegu, Korea) were incubated in 2 mL Hanks balanced salt solution containing 0.167% trypsin (Invitrogen, Carlsbad, Calif.) at 37° C. for 40 min. The cells were washed in DMEM and triturated with a flame-polished Pasteur pipette to separate cells and remove processes, and subsequently centrifuged (750 RPM, 5 min), resuspended and placed on 0.5 mg/mL poly-L-ornithine (Sigma, St. Louis, Mo.)-coated glass coverslips (12 mm in diameter). The cells were maintained at 37° C. in a […]/5% CO2 incubator.
Whole-cell recordings were made using patch electrodes (4 to 6 MΩ) pulled from borosilicate glass on a Brown-Flaming P-97 horizontal micropipette puller (Sutter Instruments, Novato, Calif.). Voltage- and current-clamp experiments were performed using an HEKA EPC9 amplifier and digitized using ITC16 and Pulse v8.54 software (both from HEKA, Lambrecht/Pfalz, Germany). […] Data were analyzed by Origin 6.0 software. […]
Ih was elicited by a 2 s pulse from a holding potential of −50 mV to −120 mV in 10 mV steps. […] The reversal potential of the eugenol-sensitive currents was determined by measuring the tail currents. […]

[6] = system: voltage-gated sodium channels (VGSCs); experiment: VGSC currents in TG neurons in normal bath solution; assay type: cell-based, rat; conditions: 200 μM, n=3
Method: (B) The left figure represents the comparison of action potentials at an expanded time scale before and after exposure to eugenol (200 μM), and the Right figure represents a summary of the dV/dt analysis. (C) The left figure represents superimposed current traces before and during exposure to eugenol (200 μM) in the normal bath solution where inward currents result from VGSCs, and the right figure represents a summary of eugenol-induced VGSC currents inhibition (n=3).
Whole-cell recordings were made using patch electrodes (4 to 6 MΩ) pulled from borosilicate glass on a Brown-Flaming P-97 horizontal micropipette puller (Sutter Instruments, Novato, Calif.). Voltage- and current-clamp experiments were performed using an HEKA EPC9 amplifier and digitized using ITC16 and Pulse v8.54 software (both from HEKA, Lambrecht/Pfalz, Germany). Signals were filtered at 1 kHz and sampled at 3 kHz. Series resistance was typically less than 20 MΩ and was compensated by about 70 to 80%. Electrical recordings were performed at room temperature. The 3 M KCl agar bridge (Warner Instruments, Hamden, Conn.) is used to avoid high liquid junction potentials. Data were analyzed by Origin 6.0 software.
Extracellular solution containing 140 mM NaCl, 2 mM CaCl2, 1 mM MgCl2, 5 mM KCl, 10 mM HEPES, 10 mM D-glucose was adjusted to pH 7.4 with NaOH, 290 to 310 mOsm. […]

[7] = concentration lower than that which would inhibit VGSCs (50 μg; 10 mM)

## CCN(c1ccccc1)c1cc(=NC)n(C)c(C)n1.Cl [ZD7288]
Injured nerve fibers
  pain behavior: reversed
  spontaneous discharges in injured nerve fibers: reversed
Ih conductance
  action potential duration: prolonged
  repetitive firing during tetanic bursts: diminished

## C=CCc1ccc(O)c(OC)c1 [eugenol, 4-allyl-2-methoxyphenol]
[1]; 200 μM eugenol, 8-Br-cAMP (100 μM) in pipette solution, n=6
  eugenol-induced Ih inhibition with 8-Br-cAMP: 17.5±3.7%
[1]; 200 μM eugenol, Rp-cAMPs (100 μM), n=6
  eugenol-induced Ih inhibition with Rp-cAMPs: 25.7±3.4%
[1]; 200 μM eugenol, Sp-cAMPs (100 μM), n=5
  eugenol-induced Ih inhibition with Sp-cAMPS: 20.1±3.1%
[1]; 200 μM eugenol, TG neurons pretreated 5 min with NEM (50 μM), n=8
  Ih inhibition after pretreatment with NEM: 69.2±4.4%
[1]; 200 μM, TG neurons of adult (naive) rats, n=11
  Ih inhibition: 73.0±3.9%
[1]; 200 μM, TG neurons of neonatal rats, n=27
  Ih inhibition: 63.3±1.6%
[1]; 200 μM, injured DiI-labeled TG neurons of ION-CCI rats, n=7
  Ih inhibition: 67.5±4.0%
[1]; 200 μM, sequential application, FIG. 2A
  reversibility of Ih inhibition: reversible and repetitively reproduced
[1]; 200 μM, step pulses −50 to −120 mV, full range of voltages
  maximal Ih amplitude: reduced
[1]; 200 μM, without NEM, n=8, FIG. 6A
  Eugenol-induced Ih inhibition: 66.1±1.8%
[1]; 500 μM and 1 mM, FIG. 3
  Ih block: complete Ih block
[1]; after application of 200 μM eugenol, n=4, control −29.4±2.3 mV
  mean Vrev (reversal potential of Ih): −25.8±1.4 mV
[1]; read-out: IC50 of Ih inhibition, TG neurons, dose dependent, FIG. 3
  IC50: 157 µM
[2]
  concentration at which eugenol inhibits VGSCs: 10 mM
ION-CCI rats [3]; 50 μg subcutaneous, n=6, p<0.05
  thermal hyperalgesia / thermal hypersensitivity: significantly reduced; also recorded: significantly inhibited
ION-CCI rats [3]; <10 μg
  thermal hyperalgesia: not effective
ION-CCI rats [3]; [7]
  effect on thermal hyperalgesia: no effect
ION-CCI rats [3]; low dose 10 μg subcutaneous, n=6
  thermal hypersensitivity: no effect
ION-CCI rats [4]; 1 μg subcutaneous into vibrissa pad, 7 day ION-CCI
  air-puff thresholds: significantly enhanced
ION-CCI rats [4]; 5 to 10 μg subcutaneous, cutoff 40 psi
  air-puff threshold: reached the cutoff
ION-CCI rats [4]; FIG. 7B
  onset of effect: occurred immediately
ION-CCI rats [4]; [7]
  effect on mechanical allodynia: ameliorating effect
ION-CCI rats [4]; subcutaneous 1 μg, 5 μg, 10 μg, n=6 per group, p<0.05
  antiallodynic effects on mechanical allodynia: significantly produced prolonged the antiallodynic effects
ION-CCI rats [5]
  thermal pain / thermal hyperalgesia, previous study: blocks thermal pain in a dose-dependent manner; also recorded: ameliorated thermal hyperalgesia
TG neurons
  dV/dt of action potential: not changed
TG neurons; 50 pA depolarizing current injection, n=4
  firing rates of action potentials: reduced
[6]
  VGSC currents: not affected
